Patent publication US9926315B2, “Triazolopyridine compounds and methods for the treatment of cystic fibrosis” (Flatley Discovery Lab, LLC, priority 2014, dated 2018)
pEC50: −log10 of the molar value.

Biological target: T1, human ΔF508-CFTR (Homo sapiens, UniProt P13569, DEL508-508)
T1 construct: expressed in transfected cells
Test: CFTR-YFP High Throughput Assay (HTS YFP flux assay, corrector / potentiator protocols)
Type: cell-based
Details: FRT cells stably expressing human ΔF508-CFTR and YFP-H148Q/I152L
Method: Assays for Detecting and Measuring the Effect of Compounds on dF508-CFTR Channels CFRT-YFP High Throughput Assay: Corrector Assay:
The following protocol is designed to selectively screen small molecule compounds for F508del CFTR corrector activities in the HTS YFP flux assay. In this protocol, the cells are incubated with testing compounds for 24 hours, washed with PBS, stimulated with forskolin and a standard potentiator, and read on a 384-well HTS plate reader, such as the Hamamatsu FDDD-6000.
(§1) YFP fluorescence intensity is acquired at high speed before and after iodide buffer is injected to the assay cells. Iodide enters the cells via active CFTR channels in the plasma membrane, and quenches the YFP fluorescence. The rate of fluorescence quenching is proportionally related to the total CFTR activities in the cell membrane. dF508-CFTR corrector accelerates YFP quenching by increasing the number of CFTR molecules in the testing cell plasma membrane.
This method was initially developed for bench top plate readers (Galietta, 2001), and was adapted to the HTS format (Sui, 2010).
Fisher Rat Thyroid (FRT) cells stably expressing both human ΔF508-CFTR and a halide-sensitive yellow fluorescent protein (YFP-H148Q/I152L 25, 22) (Galietta, 2001) were cultured on plastic surface in Coon's modified Ham's F12 medium supplemented with FBS 10%, L-glutamine 2 mM, penicillin 100 U/mL, and streptomycin 100 μg/mL. G418 (0.75-1.0 mg/mL) and zeocin (3.2 μg/mL) were used for selection of FRT cells expressing ΔF508-CFTR and YFP. For primary screening, FRT cells were plated into 384-well black wall, transparent bottom microtiter plates (Costar; Corning Inc.) at a cell density of 20, 000-40, 000 per well. Test compound was applied to the cells at varying concentrations ranging from 2 nM-[…] in either a 2-fold or 3-fold dilution series. Cells were incubated in a cell culture incubator at 37° C. with 5% CO2 for 24-26 h. Assay plates were washed with DPBS media (Thermo, cat#SH30028.02) to remove unbound cells and compound. Stimulation media (25 μL) containing 20 μM Forskolin & 30 μM P3 [6-(Ethyl-phenyl-sulfonyl)-4-oxo-1, 4-dihydro-quinoline-3-carboxylic acid 2-methoxy-benzylamide] in Hams F-12 coon's modified media was added to the plate wells and incubated at room temperature for 60-120 min. 25 μL of HEPES-PBS-I buffer (10 mM HEPES, 1 mM MgCl2, 3 mM KCl, 1 mM CaCl2, 150 mM NaI) was then added and fluorescence quench curves (Excitation 500 nm/Emission 540 nm; exposure 136 ms) were immediately recorded on an FDSS-6000 plate reader (Hamamatsu). Quench rates were derived from least squares fitting of the data (Sui, 2010).
The following protocol is designed to selectively screen small molecule compounds for F508del CFTR potentiator activities in the HTS YFP flux assay. In this protocol, the cells are incubated at 27° C. for 24 hours with homogeneously boosted dF508-CFTR expression in the cell membrane by the low temperature, washed with PBS, stimulated with forskolin, and read on a 384-well HTS plate reader, such as the Hamamatsu […].
as §1, with “dF508del-CFTR potentiators accelerate” for “dF508-CFTR corrector accelerates”, “increasing” for “increasing the number of”, “activities” for “molecules”
Fisher Rat Thyroid (FRT) cells stably expressing both human ΔF508-CFTR and a halide-sensitive yellow fluorescent protein (YFP-H148Q/I152L 25, 22) (Galietta, 2001) were cultured on plastic surface in Coon's modified Ham's F12 medium supplemented with FBS 10%, L-glutamine 2 mM, penicillin 100 U/mL, and streptomycin 100 μg/mL. G418 (0.75-1.0 mg/mL) and zeocin (3.2 μg/mL) were used for selection of FRT cells expressing ΔF508-CFTR and YFP. […]

T1 sequence (P13569 with tags, fused parts or gaps DEL508-508): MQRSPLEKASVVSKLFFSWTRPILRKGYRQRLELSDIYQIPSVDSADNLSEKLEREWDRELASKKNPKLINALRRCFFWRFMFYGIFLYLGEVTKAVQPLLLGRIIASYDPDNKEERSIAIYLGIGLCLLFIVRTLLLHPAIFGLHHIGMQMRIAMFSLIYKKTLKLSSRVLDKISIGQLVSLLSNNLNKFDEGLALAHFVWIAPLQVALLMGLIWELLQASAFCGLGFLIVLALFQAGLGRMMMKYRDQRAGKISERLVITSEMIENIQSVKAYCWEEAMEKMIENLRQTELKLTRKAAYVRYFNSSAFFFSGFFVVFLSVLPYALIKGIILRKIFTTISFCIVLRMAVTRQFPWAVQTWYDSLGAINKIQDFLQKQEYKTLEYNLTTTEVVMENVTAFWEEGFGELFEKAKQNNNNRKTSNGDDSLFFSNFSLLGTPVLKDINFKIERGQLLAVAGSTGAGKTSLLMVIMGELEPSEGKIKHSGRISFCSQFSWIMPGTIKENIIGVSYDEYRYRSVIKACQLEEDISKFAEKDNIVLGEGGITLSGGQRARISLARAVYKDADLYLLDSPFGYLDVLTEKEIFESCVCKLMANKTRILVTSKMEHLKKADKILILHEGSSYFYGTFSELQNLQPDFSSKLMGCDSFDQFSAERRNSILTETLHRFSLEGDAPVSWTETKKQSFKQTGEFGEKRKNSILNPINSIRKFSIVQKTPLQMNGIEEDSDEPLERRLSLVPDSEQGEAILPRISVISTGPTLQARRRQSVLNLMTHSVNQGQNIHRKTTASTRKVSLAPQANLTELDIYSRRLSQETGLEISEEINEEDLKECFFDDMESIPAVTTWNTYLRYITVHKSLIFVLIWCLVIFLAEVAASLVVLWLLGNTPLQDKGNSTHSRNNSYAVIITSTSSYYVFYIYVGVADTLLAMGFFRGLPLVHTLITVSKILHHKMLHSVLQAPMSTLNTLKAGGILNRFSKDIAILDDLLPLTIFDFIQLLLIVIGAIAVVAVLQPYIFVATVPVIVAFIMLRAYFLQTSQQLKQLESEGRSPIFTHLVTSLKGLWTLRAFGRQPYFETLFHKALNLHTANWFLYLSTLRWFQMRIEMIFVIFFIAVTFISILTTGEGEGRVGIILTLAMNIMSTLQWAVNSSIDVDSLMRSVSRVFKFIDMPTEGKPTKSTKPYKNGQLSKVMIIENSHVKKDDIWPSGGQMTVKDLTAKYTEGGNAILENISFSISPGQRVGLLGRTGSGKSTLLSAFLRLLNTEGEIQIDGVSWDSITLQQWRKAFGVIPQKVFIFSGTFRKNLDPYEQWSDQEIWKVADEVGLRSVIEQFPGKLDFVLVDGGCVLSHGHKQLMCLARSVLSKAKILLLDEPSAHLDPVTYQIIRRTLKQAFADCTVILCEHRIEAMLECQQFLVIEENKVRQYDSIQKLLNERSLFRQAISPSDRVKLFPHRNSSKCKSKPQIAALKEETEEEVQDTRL

Cc1ccc(CNc2nc3ccc(S(=O)(=O)N4CCCCC4)cn3n2)cc1 [Example 102]
pEC50: > 6.00 | Emax (normalized to positive control, read-out: Emax (% Efficacy, EMax normalized to the positive control)): > 80%
